Assay results from patent US5206384A, “Actinonin derivatives and pharmaceutically acceptable salts thereof” (Zaidan Hojin Biseibutsu Kagaku Kai, priority 1990, dated 1993).

Columns and labels:
enkephalinase = enkephalinase (Homo sapiens, UniProt P08473); test: Enkephalinase-inhibitory activity; type: biochemical; settings: for IC50: concentration which inhibits enzymatic activity of enkephalinase by 50%
Protocol: IC50 concentrations (M concentration) of some typical compounds of this invention which can inhibit enzymatic activity of enkephalinase by 50% were measured.

[1] = target: angiotensin-conversion enzyme (ACE) (Homo sapiens, UniProt P12821); test: ACE-inhibitory activity; type: biochemical; settings: for IC50: method of Analytical Biochemistry, 84, 361 (1978)
Protocol: Thus, we have tested the enzyme-inhibitory activities of some typical compounds of this invention against angiotensin-conversion enzyme (ACE) which participates in the control of blood-pressure in mammalian animals by converting angiotensin I, a peptide-type hormone in brain, into angiotensin II. The determination of ACE-inhibitory activity was carried out in accordance with the method described in "Analytical Biochemistry", 84, 361 (1978) and the activity was estimated in term of the concentration (mole concentration, M) of each compound tested at which the activity of the enzyme can be inhibited by 50% (IC50).

peptidases = settings: Journal of Antibiotics, 38, 1629-1630 (1985); U.S. Pat. No. 4,663,342; cited from earlier work

Chain of enkephalinase (P08473 whole entry, species assumed): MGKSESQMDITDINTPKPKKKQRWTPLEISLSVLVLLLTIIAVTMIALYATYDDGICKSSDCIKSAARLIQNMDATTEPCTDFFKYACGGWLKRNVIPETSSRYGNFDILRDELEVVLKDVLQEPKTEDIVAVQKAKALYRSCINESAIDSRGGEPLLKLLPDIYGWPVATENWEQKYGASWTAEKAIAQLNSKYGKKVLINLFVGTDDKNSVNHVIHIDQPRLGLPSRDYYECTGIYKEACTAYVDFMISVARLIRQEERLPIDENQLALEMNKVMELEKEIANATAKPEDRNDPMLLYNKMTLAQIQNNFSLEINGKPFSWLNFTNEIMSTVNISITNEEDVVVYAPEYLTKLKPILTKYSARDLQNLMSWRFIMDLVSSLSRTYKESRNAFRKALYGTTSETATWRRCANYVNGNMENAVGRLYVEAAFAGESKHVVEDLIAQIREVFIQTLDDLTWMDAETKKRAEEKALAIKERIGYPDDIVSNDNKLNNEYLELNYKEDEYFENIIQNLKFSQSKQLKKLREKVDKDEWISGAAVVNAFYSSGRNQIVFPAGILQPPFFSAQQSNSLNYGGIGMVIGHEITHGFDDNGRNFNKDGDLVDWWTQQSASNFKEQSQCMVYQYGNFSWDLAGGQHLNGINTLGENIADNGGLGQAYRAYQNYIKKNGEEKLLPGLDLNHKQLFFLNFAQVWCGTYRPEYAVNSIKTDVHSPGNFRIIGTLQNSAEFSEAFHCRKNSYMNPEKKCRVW
Chain of angiotensin-conversion enzyme (ACE) (P12821 30-1306, species assumed): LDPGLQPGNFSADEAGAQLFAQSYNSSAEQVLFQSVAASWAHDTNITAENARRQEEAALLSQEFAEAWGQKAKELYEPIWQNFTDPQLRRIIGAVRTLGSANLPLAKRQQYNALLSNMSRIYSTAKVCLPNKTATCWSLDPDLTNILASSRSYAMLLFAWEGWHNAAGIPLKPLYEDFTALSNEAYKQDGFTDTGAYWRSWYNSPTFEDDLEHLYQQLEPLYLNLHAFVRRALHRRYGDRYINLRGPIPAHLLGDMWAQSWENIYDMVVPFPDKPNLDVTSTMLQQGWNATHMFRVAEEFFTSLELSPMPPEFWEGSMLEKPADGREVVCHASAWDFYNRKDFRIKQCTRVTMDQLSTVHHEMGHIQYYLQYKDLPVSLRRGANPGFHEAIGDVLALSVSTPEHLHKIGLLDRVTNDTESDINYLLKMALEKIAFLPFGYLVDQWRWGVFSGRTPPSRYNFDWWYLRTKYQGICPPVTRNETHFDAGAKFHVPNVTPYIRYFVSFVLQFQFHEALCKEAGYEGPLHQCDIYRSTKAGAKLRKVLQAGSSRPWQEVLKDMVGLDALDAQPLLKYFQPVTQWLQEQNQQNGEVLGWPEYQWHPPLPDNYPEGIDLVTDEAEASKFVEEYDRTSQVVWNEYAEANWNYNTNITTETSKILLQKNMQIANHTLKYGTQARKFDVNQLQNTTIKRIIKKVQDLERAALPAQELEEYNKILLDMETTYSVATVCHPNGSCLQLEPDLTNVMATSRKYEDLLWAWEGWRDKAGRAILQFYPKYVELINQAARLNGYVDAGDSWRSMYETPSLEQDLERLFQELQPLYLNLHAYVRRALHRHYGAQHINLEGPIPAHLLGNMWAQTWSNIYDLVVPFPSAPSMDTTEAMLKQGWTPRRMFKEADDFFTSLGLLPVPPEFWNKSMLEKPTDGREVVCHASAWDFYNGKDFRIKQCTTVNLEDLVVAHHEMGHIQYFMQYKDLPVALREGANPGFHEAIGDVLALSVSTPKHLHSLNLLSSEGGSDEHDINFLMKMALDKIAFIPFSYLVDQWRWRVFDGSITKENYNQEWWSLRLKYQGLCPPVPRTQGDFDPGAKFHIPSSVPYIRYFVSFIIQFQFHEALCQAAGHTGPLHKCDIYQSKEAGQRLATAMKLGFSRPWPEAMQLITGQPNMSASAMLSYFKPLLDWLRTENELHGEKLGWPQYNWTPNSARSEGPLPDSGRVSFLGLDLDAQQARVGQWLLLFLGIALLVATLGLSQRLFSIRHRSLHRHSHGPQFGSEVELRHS

IC50 (enkephalinase) [µM] | IC50 [1] [µM] | enkephalinase-inhibitory activity, times stronger than that of actinonin (enkephalinase; relative to actinonin as reference, from Table 2) | inhibitory activities against angiotensin-converting enzymes (in words) [1] | Structure (SMILES) | inhibits a wide variety of peptidases (in words) (peptidases)
4.1 | 430 | – | – | CCCCC[C@H](CC(=O)NO)C(=O)NC(C(=O)N1CCC[C@H]1COS(=O)(=O)O)C(C)C (stereo in doubt) [Compound of formula (Ig), (2R)-2-(Hydroxyaminocarbonylmethyl)heptanoyl-L-valyl-(2S)-2-(sulfoxymethyl)pyrrolidine] | –
14 | 92 | – | – | CCCCC[C@H](CC(=O)NOS(=O)(=O)O)C(=O)NC(C(=O)N1CCC[C@H]1COS(=O)(=O)O)C(C)C (stereo in doubt) [Compound of formula (Ia), (2R)-2-(Sulfoxyaminocarbonylmethyl)heptanoyl-L-valyl-(2S)-2-(sulfoxymethyl)pyrrolidine] | –
0.31 | 28 | more than 10 times | – | CCCCC[C@H](CC(=O)NO)C(=O)NC(C(=O)N1CCC[C@H]1C(=O)O)C(C)C (stereo in doubt) [Compound of formula (Ib), (2R)-2-(Hydroxyaminocarbonylmethyl)heptanoyl-L-valyl-L-proline] | –
5.6 | 590 | – | low levels of inhibitory activity | CCCCC[C@H](CC(=O)NO)C(=O)N[C@H](C(=O)N1CCC[C@H]1CO)C(C)C [Actinonin, actinonin] | inhibits a wide variety of peptidases
1.2 | 0.53 | – | – | CCCCC[C@H](CC(=O)NO)C(=O)N[C@H](C(=O)N1CCC[C@H]1C(=O)NO)C(C)C [Compound of formula (Id), (2R)-2-(Hydroxyaminocarbonylmethyl)heptanoyl-L-valyl-L-proline.hydroxamide] | –
